{"source": "patent US20240190890A1", "about": "“MK2 INHIBITORS AND USES THEREOF” (Bristol-Myers Squibb Company, priority 2022, published 2024)", "data": [{"biological_target": "p38a activated, mitogen-activated protein kinase-activated protein kinase 2 (MAPKAP-K2 or MK2) enzyme (Homo sapiens (Human), UniProt P49137)", "sequence (P49137 whole entry)": "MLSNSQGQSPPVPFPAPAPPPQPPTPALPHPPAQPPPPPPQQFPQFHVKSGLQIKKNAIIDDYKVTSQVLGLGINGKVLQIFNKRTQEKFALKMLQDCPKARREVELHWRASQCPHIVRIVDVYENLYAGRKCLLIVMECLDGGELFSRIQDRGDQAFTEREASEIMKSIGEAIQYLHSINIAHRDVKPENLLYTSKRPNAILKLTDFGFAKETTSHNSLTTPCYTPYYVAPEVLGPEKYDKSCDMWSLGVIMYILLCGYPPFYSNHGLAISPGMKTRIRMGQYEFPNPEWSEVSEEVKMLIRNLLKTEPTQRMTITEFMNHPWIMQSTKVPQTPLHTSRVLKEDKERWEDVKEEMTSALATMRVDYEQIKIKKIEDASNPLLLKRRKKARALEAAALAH", "assay": "MK2 Omnia continuous-read kinase assay for compound potency", "format": "biochemical", "details": "[MK-2]=0.4 nM, [ATP]=10 μM, [ST3-Sox]=10 μM; room temperature", "outline": "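Continuous Sox-peptide fluorescence read (ex360/em485) every 71 s over 2 h at room temperature. Reactions: 10 μM each of ATP (at apparent Km) and S/T3-Sox, 0.4 nM p38a-activated MK2, pH 7.5 Tris/MgCl2 buffer. Initial rates yield % inhibition and IC50; single-exponential kobs values yield apparent kinact/KI.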", "units": {"IC50": "nM"}, "values": [{"compound": "C=Cc1nc(CN2CCN(C)CC2)cc(-c2ccc3c(ccc4sc5c(c43)NC[C@@H](C)NC5=O)n2)n1", "note": "[Example I-88, (R)-10-methyl-3-(6-((4-methylpiperazin-1-yl)methyl)-2-vinylpyrimidin-4-yl)-9,10,11,12-tetrahydro-8H-[1,4]diazepino[5′,6′:4,5]thieno[3,2-f]quinolin-8-one]", "IC50": 15}, {"compound": "C#Cc1cc(-c2ccc3c(ccc4sc5c(c43)NC[C@@H](C)NC5=O)n2)cc(N2CCCCC2)n1", "note": "[Example I-178, (R)-3-(2-ethynyl-6-(piperidin-1-yl)pyridin-4-yl)-10-methyl-9,10,11,12-tetrahydro-8H-[1,4]diazepino[5′,6′:4,5]thieno[3,2-f]quinolin-8-one]", "IC50": 185}, {"compound": "C=Cc1cc(-c2ccc3c(ccc4sc5c(c43)NC[C@@H](C)NC5=O)n2)c(C2CC2)cn1", "note": "[Example I-196, (R)-3-(5-cyclopropyl-2-vinylpyridin-4-yl)-10-methyl-9,10,11,12-tetrahydro-8H-[1,4]diazepino[5′,6′:4,5]thieno[3,2-f]quinolin-8-one]", "IC50": 5}, {"compound": "C[C@@H]1CNc2c(sc3ccc4nc(-c5cc(Cl)ncc5C(F)F)ccc4c23)C(=O)N1", "note": "[Example I-93, (R)-3-(2-chloro-5-(difluoromethyl)pyridin-4-yl)-10-methyl-9,10,11,12-tetrahydro-8H-[1,4]diazepino[5′,6′:4,5]thieno[3,2-f]quinolin-8-one]", "IC50": 238}, {"compound": "C[C@@H]1CNc2c(sc3ccc4nc(-c5nc(Cl)ncc5COC5CCOCC5)ccc4c23)C(=O)N1", "note": "[Example I-24, (R)-3-(2-chloro-5-(((tetrahydro-2H-pyran-4-yl)oxy)methyl)pyrimidin-4-yl)-10-methyl-9,10,11,12-tetrahydro-8H-[1,4]diazepino[5′,6′:4,5]thieno[3,2-f]quinolin-8-one]", "IC50": 98}, {"compound": "C#Cc1cc(-c2ccc3c(ccc4sc5c(c43)NC[C@@H](C)NC5=O)n2)nc(COCC)n1", "note": "[Example I-39, (R)-3-(2-(ethoxymethyl)-6-ethynylpyrimidin-4-yl)-10-methyl-9,10,11,12-tetrahydro-8H-[1,4]diazepino[5′,6′:4,5]thieno[3,2-f]quinolin-8-one]", "IC50": 8}, {"compound": "C=Cc1cc(-c2ccc3c(ccc4sc5c(c43)NC[C@@H](C)NC5=O)n2)cc(N2CCC(F)(F)CC2)n1", "note": "[Example I-168, (R)-3-(2-(4,4-difluoropiperidin-1-yl)-6-vinylpyridin-4-yl)-10-methyl-9,10,11,12-tetrahydro-8H-[1,4]diazepino[5′,6′:4,5]thieno[3,2-f]quinolin-8-one]", "IC50": 260}, {"compound": "C#Cc1cc(-c2ccc3c(ccc4sc5c(c43)NC[C@@H](C)NC5=O)n2)c(OCCN2CCOCC2)nn1", "note": "[Example I-134, (R)-3-(6-ethynyl-3-(2-morpholinoethoxy)pyridazin-4-yl)-10-methyl-9,10,11,12-tetrahydro-8H-[1,4]diazepino[5′,6′:4,5]thieno[3,2-f]quinolin-8-one]", "IC50": 137}, {"compound": "Cc1cnc(Cl)nc1-c1ccc2c(ccc3sc4c(c32)NC[C@@H](C)NC4=O)n1", "note": "[Example I-6, (R)-3-(2-chloro-5-methylpyrimidin-4-yl)-10-methyl-9,10,11,12-tetrahydro-8H-[1,4]diazepino[5′,6′:4,5]thieno[3,2-f]quinolin-8-one]", "IC50": 912}, {"compound": "C=Cc1cc(-c2ccc3c(ccc4sc5c(c43)NC[C@@H](C)NC5=O)n2)c(CO)cn1", "note": "[Example I-252, (R)-3-(5-(hydroxymethyl)-2-vinylpyridin-4-yl)-10-methyl-9,10,11,12-tetrahydro-8H-[1,4]diazepino[5′,6′:4,5]thieno[3,2-f]quinolin-8-one]", "IC50": 5}, {"compound": "C#Cc1cc(-c2ccc3c(ccc4sc5c(c43)NC[C@@H](C)NC5=O)n2)cc(N2CC(F)(F)C2)n1", "note": "[Example I-183, (R)-3-(2-(3,3-difluoroazetidin-1-yl)-6-ethynylpyridin-4-yl)-10-methyl-9,10,11,12-tetrahydro-8H-[1,4]diazepino[5′,6′:4,5]thieno[3,2-f]quinolin-8-one]", "IC50": 839}, {"compound": "C=Cc1cnc(C)c(-c2ccc3c(ccc4sc5c(c43)NC[C@@H](C)NC5=O)n2)n1", "note": "[Example I-181, (R)-10-methyl-3-(3-methyl-6-vinylpyrazin-2-yl)-9,10,11,12-tetrahydro-8H-[1,4]diazepino[5′,6′:4,5]thieno[3,2-f]quinolin-8-one]", "IC50": 39}, {"compound": "C#Cc1ncc(F)c(-c2ccc3c(ccc4sc5c(c43)NC[C@@H](C)NC5=O)n2)n1", "note": "[Example I-1, (R)-3-(2-ethynyl-5-fluoropyrimidin-4-yl)-10-methyl-9,10,11,12-tetrahydro-8H-[1,4]diazepino[5′,6′:4,5]thieno[3,2-f]quinolin-8-one]", "IC50": 5}, {"compound": "C[C@@H]1CNc2c(sc3ccc4nc(-c5nc(Cl)ncc5F)ccc4c23)C(=O)N1", "note": "[Example I-273, (R)-3-(2-chloro-5-fluoropyrimidin-4-yl)-10-methyl-9,10,11,12-tetrahydro-8H-[1,4]diazepino[5′,6′:4,5]thieno[3,2-f]quinolin-8-one]", "IC50": 153}, {"compound": "C[C@@H]1CNc2c(sc3ccc4nc(-c5cc(Cl)nc(C#CC(C)(C)N)n5)ccc4c23)C(=O)N1", "note": "[Example I-64, (R)-3-(2-(3-amino-3-methylbut-1-yn-1-yl)-6-chloropyrimidin-4-yl)-10-methyl-9,10,11,12-tetrahydro-8H-[1,4]diazepino[5′,6′:4,5]thieno[3,2-f]quinolin-8-one]", "IC50": 4}, {"compound": "[2H]C([2H])([2H])C(O)c1cnc(C=C)cc1-c1ccc2c(ccc3sc4c(c32)NC[C@@H](C)NC4=O)n1", "note": "(stereo partly drawn) [Example I-243, (10R)-3-(5-(1-hydroxyethyl-2,2,2-d3)-2-vinylpyridin-4-yl)-10-methyl-9,10,11,12-tetrahydro-8H-[1,4]diazepino[5′,6′:4,5]thieno[3,2-f]quinolin-8-one]", "IC50": 10}, {"compound": "C=Cc1cc(-c2ccc3c(ccc4sc5c(c43)NC[C@@H](C)NC5=O)n2)cc(C2=CCN(C)CC2)n1", "note": "[Example I-101, (R)-10-methyl-3-(1′-methyl-6-vinyl-1′,2′,3′,6′-tetrahydro-[2,4′-bipyridin]-4-yl)-9,10,11,12-tetrahydro-8H-[1,4]diazepino[5′,6′:4,5]thieno[3,2-f]quinolin-8-one]", "IC50": 8}, {"compound": "C#Cc1cc(-c2ccc3c(ccc4sc5c(c43)NC[C@@H](C)NC5=O)n2)cc(CN2CCC(OC(F)(F)F)CC2)n1", "note": "[Example I-190, (R)-3-(2-ethynyl-6-((4-(trifluoromethoxy)piperidin-1-yl)methyl)pyridin-4-yl)-10-methyl-9,10,11,12-tetrahydro-8H-[1,4]diazepino[5′,6′:4,5]thieno[3,2-f]quinolin-8-one]", "IC50": 402}, {"compound": "CCOCc1nc(Cl)cc(-c2ccc3c(ccc4sc5c(c43)NC[C@@H](C)NC5=O)n2)n1", "note": "[Example I-30, (R)-3-(6-chloro-2-(ethoxymethyl)pyrimidin-4-yl)-10-methyl-9,10,11,12-tetrahydro-8H-[1,4]diazepino[5′,6′:4,5]thieno[3,2-f]quinolin-8-one]", "IC50": 16}, {"compound": "C=Cc1cc(-c2ccc3c(ccc4sc5c(c43)NC[C@@H](C)NC5=O)n2)c(CC)cn1", "note": "[Example I-195, (R)-3-(5-ethyl-2-vinylpyridin-4-yl)-10-methyl-9,10,11,12-tetrahydro-8H-[1,4]diazepino[5′,6′:4,5]thieno[3,2-f]quinolin-8-one]", "IC50": 13}]}]}
